Measurements from paper PMC9226124, “Macrocycle-stabilization of its interaction with 14-3-3 increases plasma membrane localization and activity of CFTR” (Nature Communications, 2022).
Values joined by “and” are separate entries in the source; they are usually repeats but may differ in a detail not shown here. Equal values may be shown once.

Tests used:
[1] = target: T1, 14-3-3β/CFTRpS753pS768 complex (Homo sapiens, UniProt P13569+P31946); test: FP assay, 14-3-3β titration at constant compound concentration (apparent KD); format: binding; settings: for Polarization: FC 100 uM, peptide 100 nM; for Polarization / FP signal, 14-3-3β titration / FP signal: replicates; for FP signal, 14-3-3β titration / FP signal: compound 100 μM; for Fluorescence polarization signal, 14-3-3β titration: FC-A (100 μM)
T1 construct: His6 (cleaved yes); made in house; peptide synthetic
T1 sequence (P31946 whole entry): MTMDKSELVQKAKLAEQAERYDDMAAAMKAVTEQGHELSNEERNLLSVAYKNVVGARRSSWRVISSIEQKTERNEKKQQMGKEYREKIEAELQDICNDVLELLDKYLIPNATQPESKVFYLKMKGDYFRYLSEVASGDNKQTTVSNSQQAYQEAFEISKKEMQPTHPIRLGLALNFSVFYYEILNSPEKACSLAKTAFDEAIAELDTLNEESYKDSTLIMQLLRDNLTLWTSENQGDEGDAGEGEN
T1 sequence (P13569 747-774 limits assumed): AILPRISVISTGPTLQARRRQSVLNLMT

[2] = target: T1, 14-3-3β/CFTRpS753pS768 complex; test: Dose-response fluorescence polarization (FP) assay, compound titration; format: binding; settings: for FP signal: With 14-3-3; for Polarization, background subtracted: 14-3-3 10 μM, peptide 100 nM, replicates
Outline: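 Compounds were titrated in two-fold dilutions against 10 μM 14-3-3β and FITC-CFTR pS753pS768 peptide (100 nM or 10 nM). Buffer: 10 mM HEPES pH 7.4, 150 mM NaCl, 0.1% Tween20, 1 mg/mL BSA. Polarization was read at ex 485/em 535 nm, and EC50 was derived from a four-parameter variable-slope fit.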

For `C=CC(C)(C)OC[C@H]1O[C@H](O[C@@H]2C3=C([C@H](C)COC(C)=O)C[C@H](O)[C@]3(C)/C=C3/[C@@H](COC)CC[C@H]3[C@@H](C)[C@H]2O)[C@H](O)[C@@H](OC(C)=O)[C@@H]1O` [FC-A, fusicoccin A, reference compound], the Polarization ([1]; 14-3-3β 119.2 pM, listed as FC) was 20 and 18, the “FP signal, 14-3-3β titration” value ([1]; 14-3-3β 119.2 pM) was 3.333 and 5.333 (2×) and the FP signal ([1]; 14-3-3β 139.2 pM) was 5 (2×) and 3. For the same compound, the Polarization ([1]; 14-3-3β 238.4 pM, listed as FC) was 22 and 21, the “FP signal, 14-3-3β titration” value ([1]; 14-3-3β 238.4 pM) was 3.333 and 4.333 and 2.333 and the FP signal ([1]; 14-3-3β 278.5 pM) was 6 and 5 and 4. For the same compound, the Polarization ([1]; 14-3-3β 476.8 pM, listed as FC) was 21 and 19 and 18, the “FP signal, 14-3-3β titration” value ([1]; 14-3-3β 476.8 pM) was 4.333 (2×) and 2.333 and the FP signal ([1]; 14-3-3β 556.9 pM) was 6 (2×) and 5. For the same compound, the Polarization ([1]; 14-3-3β 953.7 pM, listed as FC) was 21 and 20 and 18, the “FP signal, 14-3-3β titration” value ([1]; 14-3-3β 953.7 pM) was 4.333 (2×) and 6.333 and the FP signal ([1]; 14-3-3β 1.11389e-9 M) was 5 and 7 and 8. The Polarization ([1]; 14-3-3β 1.90735e-9 M, listed as FC) was 18 and 20 and 19, the “FP signal, 14-3-3β titration” value ([1]; 14-3-3β 1.90735e-9 M) was 0.3333 and 5.333 and 3.333 and the FP signal ([1]; 14-3-3β 2.22778e-9 M) was 6 and 8 and 5. For the same compound, the Polarization ([1]; 14-3-3β 3.8147e-9 M, listed as FC) was 21 and 19, the “FP signal, 14-3-3β titration” value ([1]; 14-3-3β 3.8147e-9 M) was 0.3333 and 3.333 and 2.333 and the FP signal ([1]; 14-3-3β 4.45557e-9 M) was 4 and 7 and 9. The Polarization ([1]; 14-3-3β 7.62939e-9 M, listed as FC) was 20 and 22 and 19, the “FP signal, 14-3-3β titration” value ([1]; 14-3-3β 7.62939e-9 M) was 6.333 and 3.333 and 1.333 and the FP signal ([1]; 14-3-3β 8.91113e-9 M) was 4 and 8 and 6. For the same compound, the Polarization ([1]; 14-3-3β 1.52588e-8 M, listed as FC) was 22 and 19, the “FP signal, 14-3-3β titration” value ([1]; 14-3-3β 1.52588e-8 M) was 1.333 and 7.333 and 4.333 and the FP signal ([1]; 14-3-3β 1.78223e-8 M) was 6 (2×) and 7. The Polarization ([1]; 14-3-3β 3.05176e-8 M, listed as FC) was 23 and 20 and 22, the “FP signal, 14-3-3β titration” value ([1]; 14-3-3β 3.05176e-8 M) was 2.333 and 4.333 and 5.333 and the FP signal ([1]; 14-3-3β 3.56445e-8 M) was 9 (2×) and 7. For the same compound, the Polarization ([1]; 14-3-3β 6.10352e-8 M, listed as FC) was 24 and 25, the “FP signal, 14-3-3β titration” value ([1]; 14-3-3β 6.10352e-8 M) was 7.333 and 6.333 (2×) and the FP signal ([1]; 14-3-3β 7.12891e-8 M) was 10 (2×) and 11. For the same compound, the Polarization ([1]; 14-3-3β 1.2207e-7 M, listed as FC) was 28 and 30, the “FP signal, 14-3-3β titration” value ([1]; 14-3-3β 1.2207e-7 M) was 5.333 and 9.333 and 6.333 and the FP signal ([1]; 14-3-3β 1.42578e-7 M) was 15 and 16 and 14. The Polarization ([1]; 14-3-3β 2.44141e-7 M) was 35, the “FP signal, 14-3-3β titration” value ([1]; 14-3-3β 2.44141e-7 M) was 9.333 and 10.3333 and 5.333 and the FP signal ([1]; 14-3-3β 2.85156e-7 M) was 24 and 22 (2×). The Polarization ([1]; 14-3-3β 4.88281e-7 M, listed as FC) was 48 and 46, the “FP signal, 14-3-3β titration” value ([1]; 14-3-3β 4.88281e-7 M) was 9.333 (2×) and 12.3333 and the FP signal ([1]; 14-3-3β 5.70313e-7 M) was 40 (2×) and 33. For the same compound, the Polarization ([1]; 14-3-3β 9.76563e-7 M, listed as FC) was 68 and 64 and 69, the “FP signal, 14-3-3β titration” value ([1]; 14-3-3β 9.76563e-7 M) was 18.3333 and 11.3333 and 16.3333 and the FP signal ([1]; 14-3-3β 1.14063e-6 M) was 66 and 63 and 57. For the same compound, the Polarization ([1]; 14-3-3β 1.95313e-6 M, listed as FC) was 98 and 96 and 97, the “FP signal, 14-3-3β titration” value ([1]; 14-3-3β 1.95313e-6 M) was 32.3333 and 30.3333 and 31.3333 and the FP signal ([1]; 14-3-3β 2.28125e-6 M) was 97 and 94 and 86. The Polarization ([1]; 14-3-3β 3.90625e-6 M, listed as FC) was 135 and 137, the “FP signal, 14-3-3β titration” value ([1]; 14-3-3β 3.90625e-6 M) was 47.3333 (2×) and 44.3333 and the FP signal ([1]; 14-3-3β 4.5625e-6 M) was 137 and 131 and 124. The Polarization ([1]; 14-3-3β 7.8125e-6 M, listed as FC) was 175 and 176, the “FP signal, 14-3-3β titration” value ([1]; 14-3-3β 7.8125e-6 M) was 71.3333 and 69.3333 and 64.3333 and the FP signal ([1]; 14-3-3β 9.125e-6 M) was 171 and 164 and 159. For the same compound, the Polarization ([1]; 14-3-3β 1.5625e-5 M, listed as FC) was 212 and 209, the “FP signal, 14-3-3β titration” value ([1]; 14-3-3β 1.5625e-5 M) was 98.3333 and 94.3333 (2×) and the FP signal ([1]; 14-3-3β 1.825e-5 M) was 202 and 191 and 192. The Polarization ([1]; 14-3-3β 3.125e-5 M, listed as FC) was 234 and 235 and 231, the “FP signal, 14-3-3β titration” value ([1]; 14-3-3β 3.125e-5 M) was 123.333 and 117.333 and 124.333 and the FP signal ([1]; 14-3-3β 3.65e-5 M) was 216 and 213 and 212. The Polarization ([1]; 14-3-3β 6.25e-5 M, listed as FC) was 246 and 249 and 248, the “FP signal, 14-3-3β titration” value ([1]; 14-3-3β 6.25e-5 M) was 146.333 and 138.333 and 142.333 and the FP signal ([1]; 14-3-3β 7.3e-5 M) was 227 and 226 and 224. For the same compound, the Polarization ([1]; 14-3-3β 0.000125 M, listed as FC) was 256 and 254, the “FP signal, 14-3-3β titration” value ([1]; 14-3-3β 0.000125 M) was 152.333 and 153.333 and 150.333 and the FP signal ([1]; 14-3-3β 0.000146 M) was 232 and 230 and 229. The Polarization ([1]; 14-3-3β 0.00025 M, listed as FC) was 260 and 261 and 258, the “FP signal, 14-3-3β titration” value ([1]; 14-3-3β 0.00025 M) was 165.333 and 161.333 and 167.333 and the “FP signal, 14-3-3β titration” value ([1]; 14-3-3β 0.0005 M) was 177.333 and 174.333 and 175.333. The “Fluorescence polarization signal, 14-3-3β titration” value (“Fluorescence polarization signal” for short) ([1]; 14-3-3β concentration 119.2 pM) was 3.333 and 5.333, the “Fluorescence polarization signal” value ([1]; 14-3-3β concentration 238.4 pM) was 3.333 and 4.333 and 2.333 and the “Fluorescence polarization signal” value ([1]; 14-3-3β concentration 476.8 pM) was 4.333 and 2.333. For the same compound, the “Fluorescence polarization signal” value ([1]; 14-3-3β concentration 953.7 pM) was 4.333 and 6.333, the “Fluorescence polarization signal” value ([1]; 14-3-3β concentration 6.10352e-8 M) was 7.333 and 6.333 and the “Fluorescence polarization signal” value ([1]; 14-3-3β concentration 1.2207e-7 M) was 5.333 and 9.333 and 6.333. The “Fluorescence polarization signal” value ([1]; 14-3-3β concentration 2.44141e-7 M) was 9.333 and 10.3333 and 5.333, the “Fluorescence polarization signal” value ([1]; 14-3-3β concentration 4.88281e-7 M) was 9.333 and 12.3333 and the “Fluorescence polarization signal” value ([1]; 14-3-3β concentration 9.76563e-7 M) was 18.3333 and 11.3333 and 16.3333. For the same compound, the “Fluorescence polarization signal” value ([1]; 14-3-3β concentration 1.95313e-6 M) was 32.3333 and 30.3333 and 31.3333, the “Fluorescence polarization signal” value ([1]; 14-3-3β concentration 3.90625e-6 M) was 47.3333 and 44.3333 and the “Fluorescence polarization signal” value ([1]; 14-3-3β concentration 7.8125e-6 M) was 71.3333 and 69.3333 and 64.3333. The “Fluorescence polarization signal” value ([1]; 14-3-3β concentration 1.5625e-5 M) was 98.3333 and 94.3333, the “Fluorescence polarization signal” value ([1]; 14-3-3β concentration 3.125e-5 M) was 123.333 and 117.333 and 124.333 and the “Fluorescence polarization signal” value ([1]; 14-3-3β concentration 6.25e-5 M) was 146.333 and 138.333 and 142.333. The “Fluorescence polarization signal” value ([1]; 14-3-3β concentration 0.000125 M) was 152.333 and 153.333 and 150.333, the “Fluorescence polarization signal” value ([1]; 14-3-3β concentration 0.00025 M) was 165.333 and 161.333 and 167.333 and the “Fluorescence polarization signal” value ([1]; 14-3-3β concentration 0.0005 M) was 177.333 and 174.333 and 175.333. For the same compound, the EC50 ([2]; 14-3-3β 10 μM, labeled CFTRpS753pS768 100 nM, read-out: EC50) was 69.7 µM, the FP signal ([2]; compound 476.8 pM) was 1 and the FP signal ([2]; compound 953.7 pM) was 5. The FP signal ([2]; compound 1.90735e-9 M) was 0, the FP signal ([2]; compound 3.8147e-9 M) was 3 and the FP signal ([2]; compound 7.6294e-9 M) was 3. It also gave an FP signal ([2]; compound 1.52588e-8 M) of 2, an FP signal ([2]; compound 3.05176e-8 M) of 2 and an FP signal ([2]; compound 6.10352e-8 M) of 1. The FP signal ([2]; compound 1.2207e-7 M) was 1, the FP signal ([2]; compound 2.44141e-7 M) was 2 and the FP signal ([2]; compound 4.88281e-7 M) was 4. For the same compound, the FP signal ([2]; compound 9.76563e-7 M) was 5, the FP signal ([2]; compound 1.95313e-6 M) was 6 and the FP signal ([2]; compound 3.90625e-6 M) was 15. The FP signal ([2]; compound 7.8125e-6 M) was 23, the FP signal ([2]; compound 1.5625e-5 M) was 37 and the FP signal ([2]; compound 3.125e-5 M) was 53. For the same compound, the FP signal ([2]; compound 6.25e-5 M) was 70, the FP signal ([2]; compound 0.000125 M) was 91 and the FP signal ([2]; compound 0.00025 M) was 104. For the same compound, the FP signal ([2]; compound 0.0005 M) was 116, the FP signal ([2]; compound 0.001 M) was 133 and the “Polarization, background subtracted” value ([2]; compound 7.8125e-7 M) was 8.267 (2×) and 9.167. For the same compound, the “Polarization, background subtracted” value ([2]; compound 1.5625e-6 M) was 13.6667 (2×) and 15.2667, the “Polarization, background subtracted” value ([2]; compound 3.125e-6 M) was 22.4667 and 22.7667 and 24.2667 and the “Polarization, background subtracted” value ([2]; compound 6.25e-6 M) was 35.6667 and 36.6667 (2×). The “Polarization, background subtracted” value ([2]; compound 1.25e-5 M) was 51.9667 and 52.3667 and 53.1667, the “Polarization, background subtracted” value ([2]; compound 2.5e-5 M) was 71.5667 and 71.6667 and 72.5667 and the “Polarization, background subtracted” value ([2]; compound 5e-5 M) was 88.8667 and 90.2667 and 89.8667. The “Polarization, background subtracted” value ([2]; compound 0.0001 M) was 104.867 and 104.367 and 104.267.
